{
  "source": "patent US20210054393A1",
  "about": "“GENES FOR HORMONE-FREE PLANT REGENERATION” (priority 2018, published 2021)",
  "system": "Arabidopsis seedlings",
  "experiment": "Hormone-independent shoot regeneration of Arabidopsis seedlings after chemical induction of the transformed constructs",
  "format": "in vivo, Arabidopsis thaliana",
  "description": "For plant transformation, vector SHOOT REGENERATION was introduced into A. tumefaciens (strain C58C1.pMP90) by electroporation. Transformant A. tumefaciens were used to transform A. thaliana plants of the Col-0 ecotype by the floral dip method (Clough, 1998).\nSeeds were surface sterilised by chlorin gas by the vapor sterilisation method (Lindsey, 2017). After sterilisation, the seeds were suspended in a 0.1% agarose solution, before being stratified at 4° C. in darkness for 48 hours. Subsequently, the seeds were plated on germination medium under sterile conditions. The seeds were plated on a fine nylon mesh (100 μm), which allowed for the contact with the medium without allowing seedlings to penetrate the mesh. The plates with the seedlings were sealed with surgical tape (3M, Micropore) to prevent desiccation. The plates were placed in upright position in a growth chamber (22° C., 120-150 μmol/m^2s with 16 h light/8 h dark photoperiodlight). The plates were left to grow in these circumstances for 5 days.\nAfter 5 days of growth, the seedlings were transplanted under sterile conditions by transporting the mesh on which they were growing from the germination medium to the induction medium. The plates with the seedlings were sealed with surgical tape (3M, Micropore) to prevent desiccation. The plates were placed back in the growth chamber in upright position. The plates were left to grow in this condition for 14 days. Shoots started appearing in the second week of induction.\nPlants transformed with the SHOOT REGENERATION vector (XVE-transactivated AmiRBR and AtWIND1; GVG-transactivated AtSHR, AtSCR, AtPLT1, AtPLT4, AtPLT5 and AtWOX5) were grown on medium containing 10 μM 17β-estradiol (EST: activation of XVE) and/or 10 μM dexamethasone (DEX: activation of GVG).\nPlants transformed with the SHOOT REGENERATION-2 vector (XVE-transactivated AtWIND1; GVG-transactivated AtPLT1 and AtWOX5) were grown on medium containing 10 μM 17β-estradiol (EST: activation of XVE) and/or 10 μM dexamethasone (DEX: activation of GVG).",
  "key": {"[1]": {"conditions": "inducer on wild-type (non-transformed) seedlings, percentage of total number of seedlings tested"}},
  "data": [
    {"smiles": "C[C@@H]1C[C@H]2[C@@H]3CCC4=CC(=O)C=C[C@]4(C)[C@@]3(F)[C@@H](O)C[C@]2(C)[C@@]1(O)C(=O)CO", "note": "[DEX, dexamethasone]", "values": [
      {"measurement": "green callus", "setting": "inducer on wild-type (non-transformed) seedlings, percentage of the numbers with callus formation", "result": 0, "unit": "%"},
      {"measurement": "shoot regeneration", "setting": "inducer on wild-type (non-transformed) seedlings, percentage of the numbers with green callus formation", "result": 0, "unit": "%"},
      {"measurement": "callus", "setting": "[1]", "result": 0, "unit": "%"},
      {"measurement": "green callus", "setting": "[1]", "result": 0, "unit": "%"},
      {"measurement": "root growth arrest", "setting": "[1]", "result": 0, "unit": "%"},
      {"measurement": "shoot regeneration", "setting": "[1]", "result": 0, "unit": "%"}
    ]},
    {"smiles": "C[C@]12CC[C@@H]3c4ccc(O)cc4CC[C@H]3[C@@H]1CC[C@@H]2O", "note": "[estradiol, 17β-estradiol]", "values": [
      {"measurement": "root growth arrest, callus formation or shoot regeneration", "setting": "roots of non-transformed Arabidopsis, induced with 10 μM, result in words", "result": "never showed any root growth arrest, callus formation or shoot regeneration"}
    ]}
  ]
}
